Measurements: US20240415918A1, “Polypeptide and its use as a CCK receptor agonist/antagonist” (Centre for Regenerative Medicine & Health, Hong Kong …, priority 2021, published 2024)
Where a SMILES comes first, the peptide text is derived from it. [ ]: non-standard residue; d: D form. The star is where a group is joined. Phe(3-Br) = N[C@@H](Cc1cccc(Br)c1)C(=O)O; dNMeW = CN[C@H](Cc1c[nH]c2ccccc12)C(=O)O; Fmoc = O=C(OCC1c2ccccc2-c2ccccc21)*; Palmitoyl = CCCCCCCCCCCCCCCC(=O)*; Ahp(2) = CCCCC[C@H](N)C(=O)O; Nle = CCCC[C@H](N)C(=O)O

Experiments:
[1] = target: T1, CCK-B receptors (CHO-CCK) (Homo sapiens, UniProt P32239); assay: Calcium flux (Fluo-8) agonist test on CHO-CCK model cells; format: cell-based; settings: for EC50: CHO-CCK cells; for Agonistic Activity (%) at 10 μM: compound at 10 μM, percentage of signal of 20 nM CCK8 alone
T1 construct: expressed in transfected cells; host or cells: CHO (CHO-CCK model cells)
T1 sequence (P32239 1-447): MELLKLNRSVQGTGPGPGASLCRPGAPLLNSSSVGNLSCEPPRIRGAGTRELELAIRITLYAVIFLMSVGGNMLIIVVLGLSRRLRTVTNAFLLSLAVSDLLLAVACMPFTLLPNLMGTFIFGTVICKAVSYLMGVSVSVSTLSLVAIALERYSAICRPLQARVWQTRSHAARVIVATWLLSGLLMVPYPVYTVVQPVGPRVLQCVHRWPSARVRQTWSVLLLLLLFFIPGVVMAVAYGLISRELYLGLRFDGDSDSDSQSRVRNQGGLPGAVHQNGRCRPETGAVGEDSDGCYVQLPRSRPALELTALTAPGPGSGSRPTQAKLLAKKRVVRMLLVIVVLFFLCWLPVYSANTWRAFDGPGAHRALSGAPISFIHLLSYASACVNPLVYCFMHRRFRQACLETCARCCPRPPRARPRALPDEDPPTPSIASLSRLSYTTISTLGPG
Outline: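 Agonist-mode Fluo-8 calcium flux read on CHO-CCK cells after dye loading 30 min at 37 °C plus 30 min at room temperature.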

[2] = target: T1, CCK-B receptors (CHO-CCK); assay: Calcium flux (Fluo-8) antagonist test on CHO-CCK model cells in presence of CCK8; format: cell-based
Experimental: The compound was formulated to a 10 mM mother liquor with DMSO, and then diluted into a series of 9 concentrations with a 3-fold gradient to form a 1000× stock solution. […] Prepare 1×Fluo-8 analysis buffer: mix 9 mL of HHBS, 1 mL of 10× Pluronic F127 Plus and 20 μL of Fluo-8 thoroughly for later use. • 3. Add Fluo-8 dye working solution to the cell plate, 100 μL/well. First incubate in a 37° C. incubator for 30 min, and then take it out and incubate at room temperature in the dark for 30 min. • 4. In the process of incubating cells, the compounds to be detected were prepared with HHBS. • 5. […] The agonism/antagonism EC50 of the compound can be obtained by plotting the fitting curve with the agonism/antagonism percentage as Y-axis and the concentration of the compound as X-axis.

[3] = Fluo-8 calcium flux, 100% control = 20 nM CCK8
[4] = compound alone, 100% = 20 nM CCK8
[5] = compound together with 10 nM CCK8

| Structure (SMILES) | EC50 [1, 3] [µM] | EC50 ([2]; in presence of 10 nM CCK8) [µM] | EC50 [1, 4] [µM] | Agonistic Activity (%) at 10 μM [1] [%] | EC50 [2, 5] [µM] | also measured |
| --- | --- | --- | --- | --- | --- | --- |
| CSCC[C@H](NC(=O)[C@@H](Cc1cc2ccccc2[nH]1)NC(=O)[C@@H](N)CCC(=O)O)C(=O)N[C@@H](CC(=O)O)C(=O)N[C@@H](Cc1cccc(Br)c1)C(N)=O [HT-255, Glu-D-Trp-Met-Asp-Phe(3-Br)-NH2] | 0.000569 | 0.0403 |  |  |  |  |
| C[S+]([O-])CC[C@H](NC(=O)[C@H](N)Cc1c[nH]c2ccccc12)C(=O)N[C@@H](CC(=O)O)C(=O)N[C@@H](Cc1cccc(Cl)c1)C(N)=O (stereo partly drawn) [HT-43, D-Trp-Met(O)-Asp-Phe(3-Cl)-NH2] |  |  | 3.02 | 62.14 | 8.97 |  |
| CS(=O)(=O)CC[C@H](NC(=O)[C@H](N)Cc1c[nH]c2ccccc12)C(=O)N[C@@H](CC(=O)O)C(=O)N[C@@H](Cc1cc(Cl)cc(Cl)c1)C(N)=O [HT-72, D-Trp-Met(O2)-Asp-Phe(3,5-DiCl)-NH2] |  |  | 1.51 | 82.71 | 2.62 |  |
| CSCC[C@H](NC(=O)[C@H](Cc1ccc(O)cc1)NC(C)=O)C(=O)NCC(=O)N[C@@H](Cc1c[nH]c2ccccc12)C(N)=O [HT-207, Ac-Tyr-Met-Gly-Trp-NH2] (Ac-YMGW-NH2) |  |  |  |  |  | EC50 ([1]; Fluo-8 calcium flux, bound in μM): > 10 µM; EC50 ([2]; in presence of 10 nM CCK8, bound in μM): > 10 µM |
| CCCCCCCCCCCCCC[C@@H](NC(C)=O)C(=O)N[C@@H](CCCC)C(=O)N[C@@H](CCCCCC)C(=O)N[C@@H](Cc1cccc(Br)c1)C(N)=O [HT-266, Ac-Ha-Nle-Oa-Phe(3-Br)-NH2] | 0.0402 | 1.29 |  |  |  |  |
| CC[C@H](C)[C@H](NC(=O)[C@H](CCC(=O)O)NC(=O)[C@H](CC(N)=O)NC(=O)[C@@H](NC(=O)[C@H](CC(C)C)NC(=O)[C@H](CCC(=O)O)NC(=O)[C@H](CO)NC(=O)[C@H](CCC(=O)O)NC(C)=O)[C@@H](C)O)C(=O)N1CCC[C@H]1C(=O)N[C@@H](C)C(=O)N[C@@H](CCC(=O)O)C(=O)N[C@H](Cc1c[nH]c2ccccc12)C(=O)N[C@@H](CCSC)C(=O)N[C@@H](CC(=O)O)C(=O)N[C@@H](Cc1cccc(Br)c1)C(N)=O [HT-219, Ac-Glu-Ser-Glu-Leu-Thr-Asn-Glu-lle-Pro-Ala-Glu-D-Trp-Met-Asp-Phe(3-Br)-NH2] (Ac-ESELTNEIPAE[dW]MD[Phe(3-Br)]-NH2) | 0.327 | 2.58 |  |  |  |  |
| C[S+]([O-])CC[C@H](NC(=O)[C@H](N)Cc1c[nH]c2ccccc12)C(=O)N[C@@H](CC(=O)O)C(=O)N[C@@H](Cc1ccccc1F)C(N)=O (stereo partly drawn) [HT-42, D-Trp-Met(O)-Asp-Phe(2-F)-NH2] |  |  |  | 17.97 | 8.41 |  |
| CCCCCCCCCCCCCCCC(=O)NCC(=O)N[C@H](Cc1c[nH]c2ccccc12)C(=O)N[C@@H](CCCC)C(=O)N[C@@H](CC(=O)O)C(=O)N[C@@H](Cc1cccc(Br)c1)C(N)=O [HT-203, (Pal)-Gly-D-Trp-Nle-Asp-Phe(3-Br)-NH2] (Palmitoyl-G[dW][Nle]D[Phe(3-Br)]-NH2) | 0.036 | 1.59 |  |  |  |  |
| CCCCC[C@H](NC(=O)[C@@H](Cc1c[nH]c2ccccc12)N(C)C(=O)OCC1c2ccccc2-c2ccccc21)C(=O)N[C@@H](CC(=O)OC)C(=O)N[C@@H](Cc1cccc(Br)c1)C(N)=O [HT-254, Fmoc-(N-Me-Trp)-Pa-Asp(O-Me)-Phe(3-Br)-NH2] (Fmoc-[dNMeW][Ahp(2)]D(OMe)[Phe(3-Br)]-NH2) | 0.0226 | 1.04 |  |  |  |  |
| CSCC[C@H](NC(=O)[C@@H](Cc1ccccc1)NC(C)=O)C(=O)N[C@@H](CC(=O)O)C(=O)N[C@@H](Cc1cccc(Br)c1)C(N)=O [HT-180, Ac-D-Phe-Met-Asp-Phe(3-Br)-NH2] (Ac-[dF]MD[Phe(3-Br)]-NH2) |  |  | 0.447 |  | 3.56 |  |
| CCCC[C@H](NC(=O)[C@H](Cc1c[nH]c2ccccc12)NC(=O)CNC(=O)[C@H](CCCC)NC(C)=O)C(N)=O [HT-213, Ac-Nle-Gly-Trp-Nle-NH2] (Ac-[Nle]GW[Nle]-NH2) | 0.533 | 4.92 |  |  |  |  |
| CSCC[C@H](NC(=O)[C@H](Cc1ccccc1)NC(C)=O)C(=O)N[C@@H](CC(=O)O)C(=O)N[C@@H](Cc1cccc(Br)c1)C(N)=O [HT-223, Ac-Phe-Met-Asp-Phe(3-Br)-NH2] (Ac-FMD[Phe(3-Br)]-NH2) | 0.225 | 1.88 |  |  |  |  |
| CSCC[C@H](NC(=O)[C@H](N)Cc1c[nH]c2ccccc12)C(=O)N[C@@H](CC(=O)O)C(=O)N[C@@H](Cc1ccc(Br)cc1)C(N)=O [HT-34, D-Trp-Met-Asp-Phe(4-Br)-NH2] |  |  | 0.369 | 98.24 | 2.25 |  |
| C[S+]([O-])CC[C@H](NC(=O)[C@H](N)Cc1c[nH]c2ccccc12)C(=O)N[C@@H](CC(=O)O)C(=O)N[C@@H](Cc1cc(Cl)cc(Cl)c1)C(N)=O (stereo partly drawn) [HT-55, D-Trp-Met(O)-Asp-Phe(3,5-DiCl)-NH2] |  |  | 1.65 | 62.28 | 1.79 |  |
